Test results published in patent publication US20200188466A1, “COMPOSITIONS OF SCHISANDRA EXTRACTS AND METHODS THEREOF” (Reyoung Corporation, priority 2017, published 2020).

Experiment: Toxicological study: serum chemistry after celastrol with and without Schisandrin A
Type: in vivo, Sprague Dawley rats
Conditions: rats, 24 hours after celastrol 1.8 mg/kg oral
Protocol: 42 Male Sprague Dawley rats (weight, 210-250 g) were maintained on a 12-hour light/dark cycle with free access to water and lab chow for 10-14 h prior to the experiment. Rats were randomly divided into 7 groups (n=6 each) and groups 2-7 received 0 mg/kg, 5.5 mg/kg, and 11.0 mg/kg, 22.0 mg/kg, 44.0 mg/kg and 88.0 mg/kg of Schisandrin A in 1% CMC-Na (300-800 cps) via oral administration, respectively. After 5 minutes, all the groups received 1.8 mg/kg of celastrol in a solution of 2% DMSO-98% sterile water via oral administration.
At 24 hours of celastrol treatment, blood was collected from the rats in plasma kinetic study.

[1] = Group 1, no Schisandrin A dose stated
[2] = Group 2, Schisandrin A 0 mg/kg oral
[3] = Group 3, Schisandrin A 5.5 mg/kg oral
[4] = Group 4, Schisandrin A 11.0 mg/kg oral
[5] = Group 5, Schisandrin A 22.0 mg/kg oral
[6] = Group 6, Schisandrin A 44.0 mg/kg oral
[7] = Group 7, Schisandrin A 88.0 mg/kg oral

For `CC1=C(O)C(=O)C=C2C1=CC=C1[C@@]2(C)CC[C@@]2(C)[C@@H]3C[C@](C)(C(=O)O)CC[C@]3(C)CC[C@]12C` [celastrol], which “Serum ALT” value [1] is on record?
The value was 54.5 ± 6.7 U/L.

And the “Serum AST” value [1]?
Its value is 100.0 ± 7.0 U/L.

What about the Serum creatinine [1] of the same compound?
The Serum creatinine was 0.48 ± 0.01 mg/dL.

And the Serum urea [1]?
Its Serum urea is 19.6 ± 2.7 mg/dL.

And the “Serum ALT” value [2]?
Its value is 51.2 ± 3.5 U/L.

What about the “Serum AST” value [2] of the same compound?
The value was 92.0 ± 6.0 U/L.

And the Serum creatinine [2]?
The Serum creatinine was 0.49 ± 0.05 mg/dL.

What about the Serum urea [2] of the same compound?
Its Serum urea is 20.1 ± 1.8 mg/dL.

And the “Serum ALT” value [3]?
Its value is 54.5 ± 5.7 U/L.

And the “Serum AST” value [3]?
Its value is 91.0 ± 4.0 U/L.

What about the Serum creatinine [3] of the same compound?
The Serum creatinine was 0.48 ± 0.02 mg/dL.

What about the Serum urea [3] of the same compound?
The Serum urea was 19.4 ± 2.5 mg/dL.

And the “Serum ALT” value [4]?
Its value is 52.5 ± 5.8 U/L.

And the “Serum AST” value [4]?
The value was 91.0 ± 9.0 U/L.

What about the Serum creatinine [4] of the same compound?
Its Serum creatinine is 0.49 ± 0.02 mg/dL.

And the Serum urea [4]?
The Serum urea was 18.3 ± 1.5 mg/dL.

And the “Serum ALT” value [5]?
Its value is 49.3 ± 6.1 U/L.

And the “Serum AST” value [5]?
The value was 106.0 ± 14.0 U/L.

And the Serum creatinine [5]?
Its Serum creatinine is 0.50 ± 0.02 mg/dL.

What about the Serum urea [5] of the same compound?
The Serum urea was 16.5 ± 1.5 mg/dL.

And the “Serum ALT” value [6]?
The value was 52.4 ± 8.3 U/L.

And the “Serum AST” value [6]?
Its value is 111.0 ± 40.0 U/L.

And the Serum creatinine [6]?
Its Serum creatinine is 0.49 ± 0.01 mg/dL.

And the Serum urea [6]?
The Serum urea was 17.9 ± 4.0 mg/dL.

And the “Serum ALT” value [7]?
The value was 53.4 ± 7.1 U/L.

What about the “Serum AST” value [7] of the same compound?
Its value is 92.0 ± 9.0 U/L.

And the Serum creatinine [7]?
Its Serum creatinine is 0.49 ± 0.03 mg/dL.

What about the Serum urea [7] of the same compound?
The Serum urea was 18.8 ± 3.4 mg/dL.
